Laboratory results: the supplement of paper PMC6335503

What was measured:
Assay in all cases: cell viability, percent of DMSO control (CellTiter-Glo); higher = more viable cells
Conditions in all cases: 72 h
[1] = tested on: DFTD cell line T1 (06/2887)
Protocol: (§1)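 Eight-point dose titration of 41 screen hits in triplicate wells on four Tasmanian devil DFTD tumour cell lines (T1-T4) and devil fibroblasts, 384-well plates. Viability was read by CellTiter-Glo (ATP) after 72 h at 37 °C. Percent of control per plate: DMSO wells = 100%, positive-control wells = 0%.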

[2] = tested on: DFTD cell line T4 (07/0192)
Protocol: as §1

[3] = tested on: DFTD cell line T2 (05/2569)
Protocol: as §1

[4] = tested on: DFTD cell line T3 (06/0368)
Protocol: as §1

CN(C)C/C=C/C(=O)Nc1cc2c(Nc3ccc(F)c(Cl)c3)ncnc2cc1O[C@H]1CCOC1 [Afatinib (BIBW2992)]
cell viability [%]
Conditions	0.00617 µM	0.0185 µM	0.0556 µM	0.166667 µM	0.5 µM	1.5 µM	4.5 µM	13.5 µM
[1]	102	58.8	29	19	24.5	18.8	4.12	1.43
[2]	98.9	81.1	46.3	18.2	13.9	18.8	5.93	1.47
[3]	112	89.2	72.7	39.8	43.4	33.4	30.8	5.92
[4]	105	84.4	50.4	34	31.7	31.5	24	6.87

C=CC(=O)Nc1cc2c(Nc3ccc(F)c(Cl)c3)ncnc2cc1OCCCN1CCOCC1 [Canertinib (CI-1033)]
cell viability [%]
Conditions	0.00617 µM	0.0185 µM	0.0556 µM	0.166667 µM	0.5 µM	1.5 µM	4.5 µM	13.5 µM
[1]	118	106	109	98.1	42.6	18.3	18.2	8.82
[2]	104	107	107	107	86.1	39.8	24	21
[3]	120	106	116	98	91.1	33.5	33.7	13.8
[4]	92.6	110	113	110	89	49.7	32.5	38.9

Nc1ccc(F)cc1NC(=O)c1ccc(CNC(=O)/C=C/c2cccnc2)cc1 [Chidamide]
cell viability [%]
Conditions	0.0309 µM	0.0926 µM	0.277778 µM	0.833333 µM	2.5 µM	7.5 µM	22.5 µM	67.5 µM
[1]	111	97.4	38.5	28.7	9.38	-0.502	13.2	18.1
[2]	112	101	83	48.5	22.2	19.1	15.3	20.2
[3]	102	79.7	69.8	29.6	11.9	9.75	7.82	9.23
[4]	102	78.9	56.3	39	18.9	18.2	14.3	11.1

CC1(C)CC(=O)C2=C(C1)NC(=S)NC2c1cccc(O)c1 (centres undefined) [Dimethylenastron]
cell viability [%]
Conditions	0.00617 µM	0.0185 µM	0.0556 µM	0.166667 µM	0.5 µM	1.5 µM	4.5 µM	13.5 µM
[1]	113	126	115	102	70.9	50.1	42.5	33.8
[2]	118	92.6	106	105	93.9	81.3	62.2	61.7
[3]	107	130	117	104	92.3	79.2	73.7	71.3
[4]	101	119	102	110	108	94.4	103	86.2

COc1cccc2c1C(=O)c1c(O)c3c(c(O)c1C2=O)C[C@@](O)(C(=O)CO)C[C@@H]3O[C@H]1C[C@H](N)[C@H](O)[C@H](C)O1 [Doxorubicin]
cell viability [%]
Conditions	0.00617 µM	0.0185 µM	0.0556 µM	0.166667 µM	0.5 µM	1.5 µM	4.5 µM	13.5 µM
[1]	109	105	104	85.8	61.2	2.77	-6.73	-3.65
[2]	104	106	96.8	84.9	53.4	2.44	-5.87	-5.47
[3]	108	98.7	96.5	88.7	64.5	13.4	-8.33	-4.69
[4]	112	96.6	98.6	77	66.5	21.6	-3.26	4.78

C#Cc1cccc(Nc2ncnc3cc(OCCOC)c(OCCOC)cc23)c1.Cl [Erlotinib hydrochloride]
cell viability [%]
Conditions	0.00617 µM	0.0185 µM	0.0556 µM	0.166667 µM	0.5 µM	1.5 µM	4.5 µM	13.5 µM
[1]	138	126	104	87.3	86.4	38.1	29.1	14.2
[2]	117	114	119	99.9	104	61.7	47.2	19.7
[3]	124	142	118	90.4	98.83	56.3	33.7	18.2
[4]	121	105	122	93.5	87.4	60.8	47.1	30.7

C#Cc1cccc(Nc2ncnc3cc(OCCOC)c(OCCOC)cc23)c1 [Erlotinib]
cell viability [%]
Conditions	0.0123 µM	0.037 µM	0.111111111 µM	0.333333 µM	1 µM	3 µM	9 µM	27 µM
[1]	108	104	113	101	57.3	35.3	19.8	17
[2]	88.3	115	117	79.3	85.1	43.3	24.4	22
[3]	104	80.4	102	89.2	72.1	46.1	24.3	34.5
[4]	101	108	99.9	81.5	68.8	49.3	33.1	40.5
